For one series, the system named is HCT116 cells. Briefly: MTT cytotoxicity screening, human colon cancer cell line HCT116. Type of series: cell-based. As to conditions: Homo sapiens, HCT-116, 48 hrs incubation, absorbance 490 nm, primary screening, read-out: IC50. The gist of the method:
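HCT116 cells seeded at 2.5×10^4 cells/ml, treated 24 h later for 48 h with compounds in medium (final DMSO 0.1%-0.001% v/v); dose series 100 μM–1 μM or 10 μM–62.5 nM, primary screen at 100 and 10 μM. Viability read by MTT (4 h, 37° C), formazan dissolved in DMSO, absorbance 490 nm.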

Series [1] relates to Human Colon Carcinoma HCT116 xenograft. Briefly: In vivo human colon carcinoma HCT116 xenograft test. Further details: species or system BALB/cASlac-nu mice. The protocol: (E)-3-(2-Chlorophenyl)-1-(2-hydroxy-4,6-dimethoxy-3-(1,2,3,6-tetrahydropyridine-4-yl)phenyl)-2-propylene-1-one hydrochloride, B2, was dissolved in a pyrogen-free, sterile PBS solution containing 1% dimethyl sulfoxide (DMSO). For daily injections, a freshly prepared solution was stored at 4° C. Before injection the B2 solution was warmed up to 37° C. and vigorously agitated in a vortex. B2 was administered through intraperitoneal injection (i.p.), 2.5, or 7.5 mg/kg/d, 20 days.
The positive control animals received 5 mg/kg/d doxorubicin intraperitoneally (i.p.), and the blank group mice received PBS solution containing 1% DMSO i.p., 5 mL/kg/d.
Female BALB/cASlac-nu mice (SLAC LABORATORY ANIMAL, Shanghai), ages 4 to 5 weeks, were used in this procedure. Animals were maintained according to the guidelines established by the National Institutes of Health.
The Human Colon Carcinoma HCT116 were grown in RPMI-1640 medium with 10% fetal calf serum and L-glutamine, and the cells were maintained using standard tissue culture conditions.
For the production of s.c. tumors, 1×10^7 cells in 0.1 mL of medium without serum were inoculated in the right flank of mice. After the tumors were implanted and reached a palpable size, the mice were randomized into control and treatment groups (n=6)
Subcutaneous tumors were measured with caliper, and the weight of the animals recorded at least three times a week. Tumor volume was estimated from caliper measurements of two perpendicular dimensions of the tumor in millimeters using the formula:
Tumor Volume(mm^3)=length(mm)×width(mm)^2/2
Tumor Inhibition Ratio (%)=(the blank group tumor weight average−the treatment group tumor weight average)/the blank group tumor weight average×100
Relative Tumor Volume (RTV)=Vt/V0. V0: the tumor volume measured at the time of randomization; Vt: the tumor volume measured each time during the administration.
Relative Increment Ratio T/C (%)=the treatment group(T) RTV/the blank control group(C) RTV×100. T/C(%)>40: inefficacy; T/C(%)≦40, and P<0.05: utility.

As usually defined, the IC50 is the concentration at which inhibition is half-maximal. One may read the melting point as the temperature of the solid-liquid transition.

Take `COc1cc(OC)c(C2=CCNCC2)c(O)c1C(=O)/C=C/c1ccccc1Cl` [Compound B2, (E)-3-(2-chlorophenyl)-1-(2-hydroxy-4,6-dimethoxy-3-(1,2,3,6-tetrahydropyridine-4-yl)phenyl)-2-propylene-1-one]: in the series on HCT116 cells, the IC50 stood at 0.1 µM. Also, in series [1] (2.5 mg/kg/d × 20 d i.p.), the “% inhibit. (tumor inhibition ratio by tumor weight)” value is recorded as 88.2%, the “RTV (relative tumor volume Vt/V0)” value was 2.86 ± 0.202, the “TIV (%)” value is 19.0% and the “Tumor wgt.” value is 0.041 ± 0.0093 g. For the same molecule, in series [1] (2.5 mg/kg/d × 20 d i.p.), the “Tumor vol. (mm^3) Final” value is 121 ± 78.2 mm^3 and the “Tumor vol. (mm^3) Initial” value amounted to 53 ± 28.0 mm^3. For the same molecule, in series [1] (7.5 mg/kg/d × 20 d i.p.), the “% inhibit. (tumor inhibition ratio by tumor weight)” value was −25.6%, the “RTV (relative tumor volume Vt/V0)” value was 12.57 ± 0.667, the “TIV (%)” value turned out to be 83.3% and the “Tumor wgt.” value worked out at 0.437 ± 0.3105 g. In series [1] (7.5 mg/kg/d × 20 d i.p.), the “Tumor vol. (mm^3) Final” value is 777 ± 459.5 mm^3 and the “Tumor vol. (mm^3) Initial” value is listed as 58 ± 39.7 mm^3. Further, the “optimal T/C (relative increment ratio)” value in series [1] (HCT116 xenografts, dosage of 2.5 mg/kg/day) stood at 19.0%. The “toxicity during the administration” value in series [1] (two B2 treatment groups, 2.5 or 7.5 mg/kg/d i.p., 20 days) is on record as “no significant toxicity was found”.
For the molecule `COc1cc(OC)c2c(=O)cc(-c3ccc(C)cc3)oc2c1C1=CCN(C)CC1` [Compound F3, 5,7-dimethoxy-8-(1-methyl-1,2,3,6-tetrahydropyridin-4-yl)-2-(4-methylphenyl)-4H-chromen-4-one], the melting point lay within 113 to 114 °C. Moreover, in the series with HCT116 cells, the IC50 turned out to be 21.1 µM.
For `COc1ccc(-c2cc(=O)c3c(OC)cc(OC)c(C4=CCN(C)CC4)c3o2)cc1` [Compound F4, 5,7-dimethoxy-8-(1-methyl-1,2,3,6-tetrahydropyridin-4-yl)-2-(4-methoxyphenyl)-4H-chromen-4-one], the melting point was 179 to 181 °C. Further, the IC50 with HCT116 cells was determined as 17.3 µM.
Molecule `COc1cc(OC)c2c(=O)cc(-c3ccc(N(C)C)cc3)oc2c1C1=CCN(C)CC1` [Compound F5, 5,7-dimethoxy-8-(1-methyl-1,2,3,6-tetrahydropyridin-4-yl)-2-(4-(dimethylamino)-phenyl)-4H-chromen-4-one] yielded a melting point of 148 to 150 °C. Further, the IC50 in the series with HCT116 cells was 7.71 µM.
In turn, `COc1cccc(-c2cc(=O)c3c(OC)cc(OC)c(C4=CCN(C)CC4)c3o2)c1OC` [Compound F6, 5,7-dimethoxy-8-(1-methyl-1,2,3,6-tetrahydropyridin-4-yl)-2-(2,3-dimethoxy-phenyl)-4H-chromen-4-one] showed a melting point of 195 to 196 °C. The half-inhibitory concentration (IC50) in the series on HCT116 cells was 61.3 µM.
For `COc1ccc(-c2cc(=O)c3c(OC)cc(OC)c(C4=CCN(C)CC4)c3o2)c(OC)c1OC` [Compound F7, 5,7-dimethoxy-8-(1-methyl-1,2,3,6-tetrahydropyridin-4-yl)-2-(2,3,4-trimethoxy-phenyl)-4H-chromen-4-one], in that order: 209 to 210 °C and 9.17 µM.
As for `COc1cc(-c2cc(=O)c3c(OC)cc(OC)c(C4=CCN(C)CC4)c3o2)cc(OC)c1OC` [Compound F8, 5,7-dimethoxy-8-(1-methyl-1,2,3,6-tetrahydropyridin-4-yl)-2-(3,4,5-trimethoxy-phenyl)-4H-chromen-4-one], the melting point fell in the range of 211 to 212 °C. In addition, the IC50 with HCT116 cells worked out at 25.9 µM.
For the molecule `Cc1cccc(-c2cc(=O)c3c(O)cc(O)c(C4=CCN(C)CC4)c3o2)c1` [Compound G2, 5,7-hydroxy-8-(1-methyl-1,2,3,6-tetrahydropyridin-4-yl)-2-(3-methylphenyl)-4H-chromen-4-one], the melting point lay in the range of 179 to 180 °C. In addition, the IC50 with HCT116 cells is 3.65 µM.
The matching figures for `Cc1ccc(-c2cc(=O)c3c(O)cc(O)c(C4=CCN(C)CC4)c3o2)cc1` [Compound G3, 5,7-hydroxy-8-(1-methyl-1,2,3,6-tetrahydropyridin-4-yl)-2-(4-methylphenyl)-4H-chromen-4-one]: 160 to 161 °C and 3.42 µM.
Regarding `COc1ccc(-c2cc(=O)c3c(O)cc(O)c(C4=CCN(C)CC4)c3o2)cc1` [Compound G4, 5,7-hydroxy-8-(1-methyl-1,2,3,6-tetrahydropyridin-4-yl)-2-(4-methoxyphenyl)-4H-chromen-4-one], the melting point lay in the range of 190 to 191 °C. The IC50 with HCT116 cells is 3.16 µM.

Values taken from patent publication US20120121692A1, “COMPOUNDS AND COMPOSITIONS COMPRISING CDK INHIBITORS AND METHODS FOR TREATING CANCER” (SHANDONG UNIVERSITY, priority 2009, published 2012).
